One data set concerns the target T1, P0 (Rattus norvegicus, UniProt P06907).
T1 construct: performed using P0-expressing RT4 D6P2T cells; host or cells: RT4 D6P2T myelinating Schwannoma cells
T1 sequence (P06907 30-248): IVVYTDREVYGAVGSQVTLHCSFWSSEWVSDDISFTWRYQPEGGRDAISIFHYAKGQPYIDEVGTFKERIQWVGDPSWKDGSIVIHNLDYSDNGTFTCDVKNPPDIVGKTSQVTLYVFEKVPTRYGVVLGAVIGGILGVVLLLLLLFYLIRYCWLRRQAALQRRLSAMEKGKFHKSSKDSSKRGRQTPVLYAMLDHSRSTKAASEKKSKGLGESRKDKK
Briefly: P0 affinity (KD) via flow cytometry saturation binding. The settings on record: saturation binding on P0-expressing RT4 D6P2T Schwannoma cells, flow cytometry (APC-A), 0–2000 nM, triplicate, repeated at least two times per tracer. In general terms: Flow cytometry measures light scatter and fluorescence of single cells or particles in a stream.

A short description of the next data set: LogP. It is filed as physicochemical. The settings on record: as previously described (refs 27, 31, 36). As to the method:
(§1) Determination of the chemical and photophysical properties (LogP, solubility, serum binding, net charge, and brightness) was performed as previously described.

A further data set in a line: Serum binding. It is filed as in vitro ADME. The note with it: as previously described (refs 27, 31, 36). As to the method:
as §1

A further data set can be described thus: Solubility. It is filed as physicochemical. The note with it: as previously described (refs 27, 31, 36). As to the method: as §1
A short description of another data set: Brightness (in HSA). It is filed as physicochemical, human. The settings on record: for Brightness (in HSA): in human serum albumin. As to the method: as §1
The subject of data set [1] is P0-expressing RT4 D6P2T myelinating Schwannoma cells. As to the kind of experiment: P0 staining and co-localization via fluorescence confocal microscopy. It is filed as cell-based. The note with it: 1 μM tracer, 1 h at 4 °C. As to the method: All chemicals were received from Actu-All Chemical (Oss, The Netherlands), Sigma Aldrich (St. Louis, MO, USA), Tokyo Chemical Industry (Tokyo, Japan), Biosolve BV (Valkenswaard, The Netherlands), and VWR Chemicals (Solon, OH, USA) and used without further purification. DMF and DMSO were dried over 4 Å molecular sieves for at least 24 h prior to use. Preparative high-pressure liquid chromatography (prep-HPLC) was performed on a Waters HPLC system (Waters Chromatography B.V., Etten-Leur, The Netherlands) using a 2545 quaternary gradient module pump and a 2489 UV detector. […] Absorption spectrometry was performed using a UV1280 UV–vis spectrometer (Shimadzu, Kyoto, Japan), and fluorescence spectrometry was performed using an LS55 (Perkin Elmer, Waltham, MA, USA). Fluorescence confocal imaging was performed using an SP8 WLL confocal microscope (Leica Microsystems, Wetzlar, Germany). The obtained images were analyzed using Leica Confocal Software (Leica Microsystems). The mean fluorescence intensity values per sample were measured using an LSRII flow cytometer (BD Biosciences, Franklin Lakes, NJ, USA) with APC-A settings (635 nm laser and 750 nm long-pass filter) for a Cy5 dye. […]
Semi-quenatitative assessment of the level of co-staining within the fluorescence […]

The target in data set [2] is myelin protein zero (Homo sapiens) (UniProt P25189). The note with it: cited from earlier work.

Values after ≈ are worked out from the molar mass of the structure shown. Like-named read-outs stand apart in the source and are kept apart here. Where a SMILES comes first, the peptide text is derived from it. The star is where a group is joined. X1 = CC1(C)C(/C=C/C=C/C=C2/N(CCCCS(=O)(=O)O)c3ccc(S(=O)(=O)O)cc3C2(C)C)=[N+](CCCCCC(=O)NCCN2C(=O)CC(*)C2=O)c2ccc(S(=O)(=O)[O-])cc21; X2 = CC1(C)C(=CC=CC=CC2=[N+](CCCCS(=O)(=O)[O-])c3ccc(S(=O)(=O)O)cc3C2(C)C)N(CCCCCC(=O)NCCN2C(=O)CC(*)C2=O)c2ccc(S(=O)(=O)O)cc21

One may read the Kd as the equilibrium constant for the complex coming apart. As a reminder, the LogP is a log measure of how a compound divides between an organic and an aqueous phase. By fraction unbound is commonly meant the share of the substance not bound to proteins or other matrix. The Solubility is how much of the substance goes into solution per volume.

Chain of myelin protein zero (Homo sapiens) (P25189 30-153): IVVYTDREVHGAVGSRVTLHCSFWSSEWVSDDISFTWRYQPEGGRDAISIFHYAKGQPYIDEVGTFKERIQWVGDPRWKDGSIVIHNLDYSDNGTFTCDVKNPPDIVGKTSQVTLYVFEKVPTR

`CC[C@H](C)[C@H](NC(=O)[C@H](CC(=O)O)NC(=O)[C@@H]1CCCN1C(=O)[C@@H]1CCCN1C(=O)[C@H](CC(N)=O)NC(=O)[C@H](CCCCN)NC(C)=O)C(=O)N[C@H](C(=O)NCC(=O)N[C@@H](CCCCN)C(=O)N[C@H](C(=O)N[C@@H](CSC1CC(=O)N(CCNC(=O)CCCCC[N+]2=C(/C=C/C=C/C=C3/N(CCCCS(=O)(=O)O)c4ccc(S(=O)(=O)O)cc4C3(C)C)C(C)(C)c3cc(S(=O)(=O)[O-])ccc32)C1=O)C(N)=O)[C@@H](C)O)C(C)C` (stereo partly shown) [Cy5-P0_101–110] (Ac-KNPPDIVGKTC(X1)-NH2): the dissociation constant Kd on P0 was greater than 1000 nM. Moreover, in “LogP” (read-out: LogP), the LogP was -0.73 ± 0.12. In addition, the fraction unbound in “Serum binding” is 0.45. The same molecule registered a Solubility in “Solubility” greater than 400 µM.

With `CC[C@H](C)[C@H](NC(=O)[C@H](CC(=O)O)NC(=O)[C@@H]1CCCN1C(=O)[C@@H]1CCCN1C(=O)[C@H](CC(N)=O)NC(=O)[C@H](CCCCN)NC(C)=O)C(=O)N[C@H](C(=O)NCC(=O)N[C@@H](CCCCN)C(=O)N[C@H](C(=O)N[C@@H](CO)C(=O)N[C@@H](CCC(N)=O)C(=O)N[C@H](C(=O)N[C@H](C(=O)N[C@@H](CC(C)C)C(=O)N[C@@H](CSC1CC(=O)N(CCNC(=O)CCCCC[N+]2=C(/C=C/C=C/C=C3/N(CCCCS(=O)(=O)O)c4ccc(S(=O)(=O)O)cc4C3(C)C)C(C)(C)c3cc(S(=O)(=O)[O-])ccc32)C1=O)C(N)=O)[C@@H](C)O)C(C)C)[C@@H](C)O)C(C)C` (stereo partly shown) [Cy5-P0_101–115] (Ac-KNPPDIVGKTSQVTLC(X1)-NH2), the Kd on P0 was greater than 1000 nM. In “LogP” (read-out: LogP), the lipophilicity (LogP) was -0.8 ± 0.16. Moreover, in “Serum binding”, the free fraction (fraction unbound) is 0.4. The Solubility in “Solubility” is greater than 400 µM.

Take `CC[C@H](C)[C@H](NC(=O)[C@H](CC(=O)O)NC(=O)[C@@H]1CCCN1C(=O)[C@@H]1CCCN1C(=O)[C@H](CC(N)=O)NC(=O)[C@H](CCCCN)NC(C)=O)C(=O)N[C@H](C(=O)NCC(=O)N[C@@H](CCCCN)C(=O)N[C@H](C(=O)N[C@@H](CO)C(=O)N[C@@H](CCC(N)=O)C(=O)N[C@H](C(=O)N[C@H](C(=O)N[C@@H](CC(C)C)C(=O)N[C@@H](Cc1ccc(O)cc1)C(=O)N[C@H](C(=O)N[C@@H](Cc1ccccc1)C(=O)N[C@@H](CCC(=O)O)C(=O)N[C@@H](CCCCN)C(=O)N[C@@H](CSC1CC(=O)N(CCNC(=O)CCCCCN2C(=CC=CC=CC3=[N+](CCCCS(=O)(=O)[O-])c4ccc(S(=O)(=O)O)cc4C3(C)C)C(C)(C)c3cc(S(=O)(=O)O)ccc32)C1=O)C(N)=O)C(C)C)[C@@H](C)O)C(C)C)[C@@H](C)O)C(C)C` (stereo partly shown) [Cy5-P0_101–120] (Ac-KNPPDIVGKTSQVTLYVFEKC(X2)-NH2; N-terminus and C-terminus assumed): in “Brightness (in HSA)” (in HSA), the “increase in brightness versus lead Cy5-P0_101–125” value is “twofold increase in brightness”. Further, the “Brightness (in HSA)” value in “Brightness (in HSA)” is given as 137,940. Also, the LogP in the data set “LogP” (read-out: LogP) is -0.99 ± 0.1. The molecule further showed a fraction unbound in the data set “Serum binding” of 0.34. This molecule also registered a Solubility in “Solubility” of 15 µM (≈ 49.4 µg/mL).

Regarding `CC[C@H](C)[C@H](NC(=O)[C@H](CC(=O)O)NC(C)=O)C(=O)N[C@H](C(=O)NCC(=O)N[C@@H](CCCCN)C(=O)N[C@H](C(=O)N[C@@H](CO)C(=O)N[C@@H](CCC(N)=O)C(=O)N[C@H](C(=O)N[C@H](C(=O)N[C@@H](CC(C)C)C(=O)N[C@@H](Cc1ccc(O)cc1)C(=O)N[C@H](C(=O)N[C@@H](Cc1ccccc1)C(=O)N[C@@H](CCC(=O)O)C(=O)N[C@@H](CCCCN)C(=O)N[C@H](C(=O)N1CCC[C@H]1C(=O)N[C@H](C(=O)N[C@@H](CCCNC(=N)N)C(=O)N[C@@H](Cc1ccc(O)cc1)C(=O)N[C@@H](CSC1CC(=O)N(CCNC(=O)CCCCCN2C(=CC=CC=CC3=[N+](CCCCS(=O)(=O)[O-])c4ccc(S(=O)(=O)O)cc4C3(C)C)C(C)(C)c3cc(S(=O)(=O)O)ccc32)C1=O)C(N)=O)[C@@H](C)O)C(C)C)C(C)C)[C@@H](C)O)C(C)C)[C@@H](C)O)C(C)C` (stereo partly shown) [Cy5-P0_105–125] (Ac-DIVGKTSQVTLYVFEKVPTRYC(X2)-NH2; N-terminus and C-terminus assumed), the “Co-localization factor (scale: 0-1), Cy5 vs Lysosomes” value in data set [1] (N = 3 per tracer, semi-quantitative, Image J) is given as “low”. In addition, the “Brightness (in HSA)” value in “Brightness (in HSA)” is 157,300. Moreover, in “LogP”, the LogP is −0.60 ± 0.04. This molecule also had a fraction unbound in the data set “Serum binding” of 0.44. The molecule also came in with a Solubility in “Solubility” of 9 µM (≈ 31.3 µg/mL).

For “Cy5-P0101-125 101-125 (from UniProt P25189)”, in data set [2], the Kd is 104 nM.

As to “KNPPDIVGKTSQVTLYVFEKVPTRY [Cy5-P0_101–125]”, the “P0-related staining (pattern and intensity)” value in data set [1] (confocal microscopy, in words) is “in agreement with the location of P0 on the membrane”. Besides, in the data set “Brightness (in HSA)”, the “Brightness (in HSA)” value is on record as 67,760. The molecule also registered a Solubility in “Solubility” of 172 µM.

(Values after publication PMC10296720, “A Truncated 14-Amino-Acid Myelin Protein-Zero-Targeting Peptide for Fluorescence-Guided Nerve-Preserving Surgery” (Biomolecules, 2023).)
